This is an account of results in ChEMBL document CHEMBL1143488, “Bis(indole) alkaloids as sortase A inhibitors from the sponge Spongosorites sp” (Bioorg Med Chem Lett, 2005).

In brackets after ≈: the same amount, converted by molar mass.

One assay concerns Staphylococcus aureus. The experiment in a line: Minimum inhibitory concentration against Staphylococcus aureus Newman strain. Format: functional.
The target in the next assay is T1, Sortase A (Staphylococcus aureus, UniProt Q9S446).
T1 sequence (Q9S446 whole entry): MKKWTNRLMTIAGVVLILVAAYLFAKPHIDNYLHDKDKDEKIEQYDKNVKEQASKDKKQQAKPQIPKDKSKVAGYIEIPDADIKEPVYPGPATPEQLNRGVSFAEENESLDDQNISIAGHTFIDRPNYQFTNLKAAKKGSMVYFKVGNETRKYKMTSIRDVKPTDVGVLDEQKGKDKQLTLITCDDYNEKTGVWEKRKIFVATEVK
The experiment in a line: Inhibitory activity against Sortase A from Staphylococcus aureus.

Turning to `O=C1N[C@@H](c2c[nH]c3cc(Br)ccc23)CN[C@@H]1c1c[nH]c2cc(Br)ccc12`, it took 12.5 µg/mL (≈ 25.6 µM) to inhibit growth in the assay with Staphylococcus aureus (MIC). The IC50 – broadly, the concentration that gives 50% inhibition – at Sortase A was more than 205 µM.

Regarding `O=C1N[C@H](c2c[nH]c3cc(Br)ccc23)CN=C1c1c[nH]c2cc(Br)ccc12`, the minimum inhibitory concentration (MIC) (in general, the lowest concentration that inhibits growth of the organism) in the assay on Staphylococcus aureus is 3.12 µg/mL (≈ 6.42 µM). For the same molecule, 178 µM corresponded to half-maximal inhibition against Sortase A (IC50).

`O=C1NC[C@@H](c2c[nH]c3cc(Br)ccc23)N=C1c1c[nH]c2cc(Br)ccc12`: in the assay with Staphylococcus aureus, the minimal inhibitory concentration (MIC) was 6.25 µg/mL (≈ 12.9 µM). This molecule also had a concentration for half-maximal inhibition (IC50) on Sortase A of 142 µM.

The molecule `O=C1N[C@H](c2c[nH]c3cc(Br)ccc23)CN=C1c1c[nH]c2ccccc12` returned a minimum inhibitory concentration (MIC) with Staphylococcus aureus of 6.25 µg/mL (≈ 15.3 µM). The molecule also gave an IC50 against Sortase A of 83.6 µM.

`O=C1NC[C@@H](c2c[nH]c3cc(Br)ccc23)N=C1c1c[nH]c2ccccc12` [(R)-6'-DEBROMOHAMACANTHIN B] registered a minimal inhibitory concentration (MIC) against Staphylococcus aureus of 100 µg/mL (≈ 246 µM). The molecule also registered an IC50 against Sortase A of more than 246 µM.

Turning to `O=C(c1ncc(-c2c[nH]c3cc(Br)ccc23)[nH]1)c1c[nH]c2ccccc12` [BROMODEOXYTOPSENTIN], the half-inhibitory concentration (IC50) against Sortase A was 48 µM.

`O=C(c1nc(-c2c[nH]c3cc(Br)ccc23)c[nH]1)c1c[nH]c2cc(O)ccc12` [BROMOTOPSENTIN] had a minimal inhibitory concentration (MIC) with Staphylococcus aureus of 25 µg/mL (≈ 59.3 µM). Further, the half-maximal inhibitory concentration (IC50) against Sortase A was 39.6 µM.

For `O=C(c1nc(-c2c[nH]c3ccccc23)c[nH]1)c1c[nH]c2ccccc12` [DEOXYTOPSENTIN], the IC50 against Sortase A was 48 µM. This counts as double-digit micromolar.

For the molecule `CC[C@H](CC[C@@H](C)[C@H]1CC[C@H]2[C@@H]3CC=C4C[C@@H](O[C@@H]5O[C@H](CO)[C@@H](O)[C@H](O)[C@H]5O)CC[C@]4(C)[C@H]3CC[C@]12C)C(C)C` [SITOGLUSIDE], the minimal inhibitory concentration (MIC) against Staphylococcus aureus amounted to 200 µg/mL (≈ 347 µM). On Sortase A, it took 31.7 µM to reach half-maximal inhibition (IC50).
